From ChEMBL document CHEMBL5230158, “Artapilosines A and B, Unusual Phenanthrene Derivatives Related to Aporphine Alkaloids from Artabotrys pilosus” (J Nat Prod, 2021)

Assays:
[1] = Therapeutic index, ratio of CC50 for cytotoxicity against human C8166 cells to EC50 for antiviral activity against HIV-1 IIIB infected in human C8166 cells; type: toxicity, cell-based; conditions: read-out: Ratio CC50/EC50
[2] = test system: Human immunodeficiency virus 1; assay: Antiviral activity against HIV-1 IIIB infected in human C8166 cells assessed as inhibition of reverse transcriptase mediated cytopathic effect incubated for 3 days by MTT assay; type: functional, organism-based; conditions: Human immunodeficiency virus 1, IIIB, C8166, 72 h
[3] = Cytotoxicity against human C8166 cells assessed as reduction in cell viability incubated for 3 days by MTT assay; type: toxicity, cell-based; conditions: time 3 day

Row | SMILES | selectivity ratio [1] | EC50 [2] [µM] | CC50 at 72 h [3] [µM] | IC50 [2] [µM]
1 | Cc1cn([C@H]2C[C@H](N=[N+]=[N-])[C@@H](CO)O2)c(=O)[nH]c1=O [ZIDOVUDINE] | 167000 | 0.0239 | 3990 | –
2 | CC(=O)N1CCc2cc3c(c4c2[C@H]1Cc1ccccc1-4)OCO3 | – | – | – | > 40
3 | OCCc1cc2c(c3c1ccc1ccccc13)OCO2 | 6690 | 0.125 | 838 | –
4 | O[C@H]1Cc2cc3c(c4c2c1cc1ccccc14)OCO3 | 148000 | 0.0209 | 3090 | –
5 | c1ccc2c(c1)C[C@H]1NCCc3cc4c(c-2c31)OCO4 [ANONAINE] | – | – | – | > 40
